Consider six molecules from patent US9273095B2, “Antibiotic peptide and preparation method therefor and application therefor” (priority 2011, dated 2016).

One data set relates to candida krusei. The data set can be described thus: microbe, parasite or virus in culture. In kind it is cell-based. The source says: • (1) Test strains: monilia albicans (candida albicans), candida glabrata, candida krusei, candida tropicalis, aspergillus fumigatus and flavous. (2) Quality control strains: candida krusei JLC30366 (ATCC6258). Antimicrobial peptides PL-13 (SEQ ID NO: 1) under test are supplied by Jiangsu ProteLight Pharmaceutical & Biotechnology Co., LTD. […] (1) The bacterial strains which preserved on PDA slant are respectively inoculated onto PDA plate and slant medium. Activation of bacterial strains is conducted at a humidity level of 60% and 25° C. (for aspergillus) or 37° C. (for candida). (2) 0.9% stroke-physiological saline solution comprising 0.5% Tween-80 is used to prepare bacterial suspension for experiment. Hemocytometer is utilized to adjust concentration of the bacterial suspension to 1-3×10^6 CFU/ml (0.5 McFarland units) to make stock solution in reserve at -20° C. During the sensitivity test, the RPMI-1640 liquid medium is diluted 1000 times to 1-3×10^3 CFU/ml. (3) The RPMI-1640 liquid is utilized as diluent to 10-fold dilute stock solution of peptides. […] The eleventh orifice is used as living control orifice, while the twelfth one as blank control. (4) The RPMI-1640 liquid is utilized as diluent to 10-fold dilute stock solution of FCZ and ICZ. […] Ditto for other operations.

The test system of a further data set is aspergillus flavous. The data set can be described thus: microbe, parasite or virus in culture. In kind it is cell-based. How it is done:
(§1) • (1) Test strains: monilia albicans (candida albicans), candida glabrata, candida krusei, candida tropicalis, aspergillus fumigatus and flavous. Antimicrobial peptides PL-13 (SEQ ID NO: 1) under test are supplied by Jiangsu ProteLight Pharmaceutical & Biotechnology Co., LTD. […] Activation of bacterial strains is conducted at a humidity level of 60% and 25° C. (for aspergillus) or 37° C. (for candida). (2) 0.9% stroke-physiological saline solution comprising 0.5% Tween-80 is used to prepare bacterial suspension for experiment. Hemocytometer is utilized to adjust concentration of the bacterial suspension to 1-3×10^6 CFU/ml (0.5 McFarland units) to make stock solution in reserve at -20° C. During the sensitivity test, the RPMI-1640 liquid medium is diluted 1000 times to 1-3×10^3 CFU/ml. (3) The RPMI-1640 liquid is utilized as diluent to 10-fold dilute stock solution of peptides. […] The eleventh orifice is used as living control orifice, while the twelfth one as blank control. (4) The RPMI-1640 liquid is utilized as diluent to 10-fold dilute stock solution of FCZ and ICZ. […] Ditto for other operations.

Another data set concerns aspergillus fumigatus. The data set can be described thus: microbe, parasite or virus in culture. In kind it is cell-based. The procedure: as §1
Data set [1] concerns Acinetobacter calcoaceticus. The data set can be described thus: microbe, parasite or virus in culture. The format is cell-based. The procedure: (§2) The experimental strains are 37 standard strains preserved in lab and clinical isolated bacteria, including drug-resistant bacteria and quality-control bacteria selecting Staphylococcus aureus ATCC29213, Enterococcus faecalis ATCC29212, Escherichia coli ATCC25922, Pseudomonas aeruginosa ATCC27853 and klebsiella pneumoniae ATCC700603.
(§3) (1) Sensitivity test is conducted with two-fold agar dilution method and Denlay multipoint inoculator. Test bacteria are cultured with nutrient broth and brain heart infusion.
(§4) (2) The drug is double diluted into different concentration with MH broth after dissolved and then placed in the plate respectively.
(§5) (3) After dissolved, MH agar culture medium are injected into the plate with drug quantitatively and mixed to make the final concentration of drug are 0.03, 0.06, 0.125, . . . , 128 μg/ml respectively.
(§6) (4) After solidification of the culture medium in the plate, test bacteria (10^4CFU/point) are inoculated by multipoint inoculator and cultured for 18 hours at constant 35° C. Then observe the results.

The test system of the next data set is Enterobacter aerogenes. The data set can be described thus: microbe, parasite or virus in culture. The format is cell-based. How it is done:
as §2, §3, §4, §5, §6

A further data set deals with Enterobacter cloacae. The data set can be described thus: microbe, parasite or virus in culture. In kind it is cell-based. The procedure:
as §2, §3, §4, §5, §6

The subject of a further data set is Escherichia coli. Briefly: microbe, parasite or virus in culture. Particulars: 08-5 (ESBLs) Extended Spectyumβ-lactamase. The format is cell-based. The procedure: as §2, §3, §4, §5, §6
For the next data set, the system named is Feilaoti citrobacter. The data set can be described thus: microbe, parasite or virus in culture. The format is cell-based. How it is done:
as §2, §3, §4, §5, §6

Another data set concerns Proteus vulgaris. The data set can be described thus: microbe, parasite or virus in culture. The format is cell-based. The procedure: as §2, §3, §4, §5, §6
Another data set deals with Salmonella typhimurium. The data set can be described thus: microbe, parasite or virus in culture. The format is cell-based. Particulars: murium. The procedure:
as §2, §3, §4, §5, §6

The next data set concerns Serratia marcescens. The data set can be described thus: microbe, parasite or virus in culture. The format is cell-based. The procedure: as §2, §3, §4, §5, §6
The next data set relates to Shigella flexneri. The data set can be described thus: microbe, parasite or virus in culture. In kind it is cell-based. The procedure: as §2, §3, §4, §5, §6
For another data set, the system named is Shigella sonnei. Briefly: microbe, parasite or virus in culture. The format is cell-based. The note with it: Shigella sonnei strains 51592. The procedure:
as §2, §3, §4, §5, §6

In another data set the test system is Shigella. Briefly: microbe, parasite or virus in culture. The format is cell-based. The procedure:
as §2, §3, §4, §5, §6

Another data set concerns Staphylococcus aureus. Briefly: microbe, parasite or virus in culture. In kind it is cell-based. How it is done:
as §2, §3, §4, §5, §6

Data set [2] has as its system Staphylococcus epidermidis. Briefly: microbe, parasite or virus in culture. In kind it is cell-based. The procedure:
as §2, §3, §4, §5, §6

The next data set has as its system Typhoid bacillus H901. Briefly: microbe, parasite or virus in culture. The format is cell-based. How it is done:
as §2, §3, §4, §5, §6

The subject of data set [3] is red cell suspension from healthy volunteers. Briefly: Hemolytic activity test. The note with it: for Hemolytic activity, absorbancy (OD value) at 570 nm: 4 hours at 37° C., OD higher than 0.1 is hemolytic, n = 3. The format is cell-based, human. How it is done:
(1) Samples are serial diluted with sterile PBS to 1000, 500, 250, 125, 64, 32, 16, 8, 4 μg/ml in turn and spread in 96-well plates, 100 μl per orifice.
(2) We use distilled water as positive control, sterile PBS as negative control and blank orifice with 200 μl PBS solution added. Each concentration above is made in triplicate.
(3) We take 3 ml whole blood from healthy volunteers and washed it with sterile PBS three times to prepare fresh 2% concentration red cell suspension. Then we added 100 μl red cell suspension into each orifice and made them cultured for 4 hours at 37° C. in the incubator. After centrifuged by plate-swashing centrifuge, the supernatant liquid is collected and measured absorbancy (OD value) at a wavelength of 570 nm. Then we compared the hemolytic efficiency of these concentrations.
(4) According to the documents standard, OD value which is higher than 0.1 is hemolytic concentration.

A further data set has as its target PL-40 (SEQ ID NO: 18). Briefly: RP-HPLC temperature profiling 5-80 C, normalised to random coil peptide C; self-association of the peptide with itself.
The next data set addresses PL-18 (SEQ ID NO: 1). The data set is described as above.
In another data set the target is PL-34 (SEQ ID NO: 6). The description is as above.
In a further data set the target is PL-43 (SEQ ID NO: 24). The data set is described as above.
A further data set has as its target PL-51 (SEQ ID NO: 30). Described as above.

Where two headings read alike, the source gives them in different places. Non-standard residues stand in square brackets, D forms with d. No end group written: not given here.

In the case of Ac-FKKLKKLFSKLLNLK-NH2 [PL-26], the Minimal inhibitory concentration is 8 µg/mL in the data set with candida krusei, >64 µg/mL with aspergillus flavous and 32 µg/mL in the data set with aspergillus fumigatus. The MIC in data set [1] is given as 6.7 µM; against Enterobacter aerogenes it was 1.3 µM; against Enterobacter cloacae, 1.7 µM; with Escherichia coli, 1.3 µM; against Feilaoti citrobacter it was 2.7 µM; in the data set with Proteus vulgaris, 6.7 µM. Also, the MIC was 5.3 µM against Salmonella typhimurium; 0.02 µM in the data set on Serratia marcescens; 1.3 µM against Shigella flexneri; 1.3 µM with Shigella sonnei; 0.3 µM with Shigella; 1.3 µM in the data set on Staphylococcus aureus (08-49(MSSA) Meticillin susceptible staphylococcus aureus). Besides, the MIC came out at 1.3 µM against Staphylococcus aureus (08-52(MRSA) Methicillin-resistant staphylococcus aureus); 1.3 µM against Staphylococcus aureus (Staphylococcus aureus ATCC25923); 1.3 µM in the data set on Staphylococcus aureus (Staphylococcus aureus ATCC29213); 1.3 µM against Staphylococcus aureus (strain 15 (listed under Staphylococcus aureus)); 0.7 µM in [2]; 2.7 µM in data set [2] (08-17 (MSSE) Meticillin susceptible staphylococcus epidermidis). Also, the MIC (in [2] (08-18 (MRSE) Methicillin-resistant staphylococcus epidermidis); in the data set on Typhoid bacillus H901) was 2.7 µM throughout. The “Hemolytic activity, absorbancy (OD value) at 570 nm” value in data set [3] (peptide 7.8125 μg/ml) is recorded as 0.020; in [3] (peptide 15.625 μg/ml), 0.047; in data set [3] (peptide 31.25 μg/ml) it was 0.057; in data set [3] (peptide 62.5 μg/ml), 0.068; in data set [3] (peptide 125 μg/ml), 0.075; in data set [3] (peptide 250 μg/ml), 0.089. The results for the “Hemolytic activity, absorbancy (OD value) at 570 nm” value in [3] (peptide 500 μg/ml) and in data set [3] (peptide 1000 μg/ml) were 0.121 and 0.327, respectively. Besides, the “hemolytic toxicity (in words)” value in [3] (summary of Table 9) is “little hemolytic toxicity”.
[dK][dL][dK][dK][dL][dF][dS][dK][dL][dW][dN][dW][dK] [PL-40 (SEQ ID NO: 18)] returned a PA (self-association parameter) with PL-40 (SEQ ID NO: 18) of 0.55 min.

B1: PL-18 (SEQ ID NO: 1) (peptide)
peptide: Ac-[dF][dK][dK][dL][dK][dK][dL][dF][dS][dK][dL][dW][dN][dW][dK]-NH2
SMILES: CC(=O)N[C@H](Cc1ccccc1)C(=O)N[C@H](CCCCN)C(=O)N[C@H](CCCCN)C(=O)N[C@H](CC(C)C)C(=O)N[C@H](CCCCN)C(=O)N[C@H](CCCCN)C(=O)N[C@H](CC(C)C)C(=O)N[C@H](Cc1ccccc1)C(=O)N[C@H](CO)C(=O)N[C@H](CCCCN)C(=O)N[C@H](CC(C)C)C(=O)N[C@H](Cc1c[nH]c2ccccc12)C(=O)N[C@H](CC(N)=O)C(=O)N[C@H](Cc1c[nH]c2ccccc12)C(=O)N[C@H](CCCCN)C(N)=O
As for B1, the PA (self-association parameter) with PL-18 (SEQ ID NO: 1) stood at 0.56 min.
[dF][dK][dK][dL][dK][dK][dK][dF][dS][dK][dL][dW][dN][dW][dK] [PL-34 (SEQ ID NO: 6)]: the PA (self-association parameter) with PL-34 (SEQ ID NO: 6) stood at 0.81 min.
In the data set with PL-43 (SEQ ID NO: 24), [dF][dK][dK][dF][dK][dK][dL][dL][dS][dK][dL][dW][dN][dW][dK] [PL-43 (SEQ ID NO: 24)] had a PA (self-association parameter) of 1.65 min.
For the molecule [dL][dF][dK][dK][dL][dK][dK][dL][dF][dS][dK][dL][dW][dN][dW][dK] [PL-51 (SEQ ID NO: 30)], the PA (self-association parameter) in the data set with PL-51 (SEQ ID NO: 30) stood at 1.63 min.
